Laboratory results published in PubChem BioAssay (NCI).
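Briefly, cells in 96-well plates were exposed to five compound concentrations for 48 h, and endpoints were estimated by linear interpolation. The concentration for full growth arrest is given as TGI.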

Tests used:
Assay in all cases: NCI tumour cell line growth inhibition, 48 h
LOX IMVI melanoma = test system: LOX IMVI melanoma
A549 NSCLC = test system: A549 NSCLC
HOP-62 NSCLC = test system: HOP-62 NSCLC
SF-268 CNS = test system: SF-268 CNS
MDA-MB-231 breast = test system: MDA-MB-231 breast
NCI-H522 lung = test system: NCI-H522 lung
RPMI-8226 leukemia = test system: RPMI-8226 leukemia
M14 melanoma = test system: M14 melanoma
SNB-75 CNS = test system: SNB-75 CNS
HCT-116 colon = test system: HCT-116 colon
EKVX NSCLC = test system: EKVX NSCLC
K-562 leukemia = test system: K-562 leukemia
HCT-15 colon = test system: HCT-15 colon
CCRF-CEM leukemia = test system: CCRF-CEM leukemia
SK-MEL-28 melanoma = test system: SK-MEL-28 melanoma
U251 CNS = test system: U251 CNS
IGROV1 ovarian = test system: IGROV1 ovarian
HOP-92 NSCLC = test system: HOP-92 NSCLC
HL-60(TB) leukemia = test system: HL-60(TB) leukemia
SW-620 colon = test system: SW-620 colon
786-0 renal = test system: 786-0 renal
CAKI-1 renal = test system: CAKI-1 renal
UACC-62 melanoma = test system: UACC-62 melanoma
OVCAR-3 ovarian = test system: OVCAR-3 ovarian
SR leukemia = test system: SR leukemia
MDA-MB-435 = test system: MDA-MB-435
MALME-3M melanoma = test system: MALME-3M melanoma
T-47D breast = test system: T-47D breast
OVCAR-8 ovarian = test system: OVCAR-8 ovarian
SF-539 CNS = test system: SF-539 CNS
MDA-N = test system: MDA-N
SK-MEL-5 melanoma = test system: SK-MEL-5 melanoma
SK-MEL-2 melanoma = test system: SK-MEL-2 melanoma
NCI-H460 lung = test system: NCI-H460 lung
OVCAR-4 ovarian = test system: OVCAR-4 ovarian
SK-OV-3 ovarian = test system: SK-OV-3 ovarian
DU-145 prostate = test system: DU-145 prostate
HS 578T breast = test system: HS 578T breast
MOLT-4 leukemia = test system: MOLT-4 leukemia
NCI/ADR-RES ovarian = test system: NCI/ADR-RES ovarian
PC-3 prostate = test system: PC-3 prostate
UACC-257 melanoma = test system: UACC-257 melanoma
A498 renal = test system: A498 renal
NCI-H226 lung = test system: NCI-H226 lung
OVCAR-5 ovarian = test system: OVCAR-5 ovarian
MCF7 breast = test system: MCF7 breast
COLO 205 colon = test system: COLO 205 colon
ACHN renal = test system: ACHN renal
HCC-2998 colon = test system: HCC-2998 colon
RXF 393 renal = test system: RXF 393 renal
SN12C renal = test system: SN12C renal
HT29 colon = test system: HT29 colon
BT-549 breast = test system: BT-549 breast
NCI-H23 lung = test system: NCI-H23 lung
KM12 colon = test system: KM12 colon
SNB-19 CNS = test system: SNB-19 CNS
SF-295 CNS = test system: SF-295 CNS
TK-10 renal = test system: TK-10 renal
UO-31 renal = test system: UO-31 renal

SMILES: COC(=O)[C@@H](COC(=O)/C=C/c1ccc(OC(C)=O)c(OC(C)=O)c1)NC(=O)/C=C/c1ccc(OC(C)=O)c(OC(C)=O)c1
- TGI (LOX IMVI melanoma): 38.1 µM
- TGI (A549 NSCLC): > 100 µM
- TGI (HOP-62 NSCLC): 75.5 µM
- TGI (SF-268 CNS): > 100 µM
- TGI (MDA-MB-231 breast): 82.4 µM
- TGI (NCI-H522 lung): 35.1 µM
- TGI (RPMI-8226 leukemia): > 100 µM
- TGI (M14 melanoma): 73.8 µM
- TGI (SNB-75 CNS): > 100 µM
- TGI (HCT-116 colon): 39.5 µM
- TGI (EKVX NSCLC): 71.5 µM
- TGI (K-562 leukemia): > 100 µM
- TGI (HCT-15 colon): 91.4 µM
- TGI (CCRF-CEM leukemia): > 100 µM
- TGI (SK-MEL-28 melanoma): > 100 µM
- TGI (U251 CNS): > 100 µM
- TGI (IGROV1 ovarian): > 100 µM
- TGI (HOP-92 NSCLC): > 100 µM
- TGI (HL-60(TB) leukemia): > 100 µM
- TGI (SW-620 colon): > 100 µM
- TGI (786-0 renal): 73.7 µM
- TGI (CAKI-1 renal): 48.1 µM
- TGI (UACC-62 melanoma): 45.9 µM
- TGI (OVCAR-3 ovarian): 50 µM
- TGI (SR leukemia): > 100 µM
- TGI (MDA-MB-435): > 100 µM
- TGI (MALME-3M melanoma): 29.2 µM
- TGI (T-47D breast): 34.9 µM
- TGI (OVCAR-8 ovarian): > 100 µM
- TGI (SF-539 CNS): 74.7 µM
- TGI (MDA-N): 50.3 µM
- TGI (SK-MEL-5 melanoma): 30 µM
- TGI (SK-MEL-2 melanoma): 55.4 µM
- TGI (NCI-H460 lung): 47 µM
- TGI (OVCAR-4 ovarian): 57.8 µM
- TGI (SK-OV-3 ovarian): > 100 µM
- TGI (DU-145 prostate): 60.7 µM
- TGI (HS 578T breast): 94.6 µM
- TGI (MOLT-4 leukemia): > 100 µM
- TGI (NCI/ADR-RES ovarian): > 100 µM
- TGI (PC-3 prostate): > 100 µM
- TGI (UACC-257 melanoma): > 100 µM
- TGI (A498 renal): > 100 µM
- TGI (NCI-H226 lung): > 100 µM
- TGI (OVCAR-5 ovarian): > 100 µM
- TGI (MCF7 breast): > 100 µM
- TGI (COLO 205 colon): 35.3 µM
- TGI (ACHN renal): > 100 µM
- TGI (HCC-2998 colon): 76.4 µM
- TGI (RXF 393 renal): > 100 µM
- TGI (SN12C renal): 46.7 µM
- TGI (HT29 colon): 88 µM
- TGI (BT-549 breast): > 100 µM
- TGI (NCI-H23 lung): > 100 µM
- TGI (KM12 colon): 94.6 µM
- TGI (SNB-19 CNS): > 100 µM

SMILES: Cc1ccc2c(c1)C(=O)c1ccc(C)nc1C2=O
- TGI (LOX IMVI melanoma): 75.6 µM
- TGI (A549 NSCLC): > 100 µM
- TGI (HOP-62 NSCLC): > 100 µM
- TGI (SF-268 CNS): > 100 µM
- TGI (MDA-MB-231 breast): > 100 µM
- TGI (NCI-H522 lung): 82.1 µM
- TGI (RPMI-8226 leukemia): > 100 µM
- TGI (M14 melanoma): > 100 µM
- TGI (SF-295 CNS): > 100 µM
- TGI (TK-10 renal): > 100 µM
- TGI (SNB-75 CNS): > 100 µM
- TGI (HCT-116 colon): 42.1 µM
- TGI (EKVX NSCLC): > 100 µM
- TGI (K-562 leukemia): > 100 µM
- TGI (HCT-15 colon): 39 µM
- TGI (CCRF-CEM leukemia): > 100 µM
- TGI (SK-MEL-28 melanoma): > 100 µM
- TGI (U251 CNS): > 100 µM
- TGI (IGROV1 ovarian): 83.2 µM
- TGI (HL-60(TB) leukemia): > 100 µM
- TGI (SW-620 colon): > 100 µM
- TGI (786-0 renal): > 100 µM
- TGI (CAKI-1 renal): > 100 µM
- TGI (UACC-62 melanoma): 48.9 µM
- TGI (OVCAR-3 ovarian): > 100 µM
- TGI (SR leukemia): > 100 µM
- TGI (MDA-MB-435): 37.6 µM
- TGI (MALME-3M melanoma): 52.5 µM
- TGI (T-47D breast): > 100 µM
- TGI (OVCAR-8 ovarian): > 100 µM
- TGI (SF-539 CNS): 68.5 µM
- TGI (MDA-N): 31.4 µM
- TGI (SK-MEL-5 melanoma): 26.7 µM
- TGI (SK-MEL-2 melanoma): > 100 µM
- TGI (OVCAR-4 ovarian): 83.7 µM
- TGI (SK-OV-3 ovarian): > 100 µM
- TGI (DU-145 prostate): > 100 µM
- TGI (HS 578T breast): > 100 µM
- TGI (MOLT-4 leukemia): > 100 µM
- TGI (NCI/ADR-RES ovarian): 67.3 µM
- TGI (PC-3 prostate): > 100 µM
- TGI (UACC-257 melanoma): 48.9 µM
- TGI (A498 renal): > 100 µM
- TGI (NCI-H226 lung): > 100 µM
- TGI (OVCAR-5 ovarian): > 100 µM
- TGI (MCF7 breast): > 100 µM
- TGI (COLO 205 colon): > 100 µM
- TGI (ACHN renal): > 100 µM
- TGI (HCC-2998 colon): 97.1 µM
- TGI (RXF 393 renal): > 100 µM
- TGI (SN12C renal): 59.2 µM
- TGI (HT29 colon): > 100 µM
- TGI (UO-31 renal): > 100 µM
- TGI (BT-549 breast): 92.8 µM
- TGI (NCI-H23 lung): 58.9 µM
- TGI (KM12 colon): > 100 µM
- TGI (SNB-19 CNS): 63.6 µM

SMILES: O=C(N/N=C1\CCc2ccccc21)N/N=C1\CCc2ccccc21
- TGI (LOX IMVI melanoma): > 100 µM
- TGI (A549 NSCLC): > 100 µM
- TGI (HOP-62 NSCLC): > 100 µM
- TGI (SF-268 CNS): > 100 µM
- TGI (MDA-MB-231 breast): 29.4 µM
- TGI (NCI-H522 lung): > 100 µM
- TGI (RPMI-8226 leukemia): > 100 µM
- TGI (M14 melanoma): 26.3 µM
- TGI (SF-295 CNS): > 100 µM
- TGI (TK-10 renal): > 100 µM
- TGI (SNB-75 CNS): > 100 µM
- TGI (HCT-116 colon): > 100 µM
- TGI (K-562 leukemia): > 100 µM
- TGI (HCT-15 colon): > 100 µM
- TGI (CCRF-CEM leukemia): > 100 µM
- TGI (SK-MEL-28 melanoma): > 100 µM
- TGI (U251 CNS): > 100 µM
- TGI (IGROV1 ovarian): > 100 µM
- TGI (HL-60(TB) leukemia): > 100 µM
- TGI (SW-620 colon): > 100 µM
- TGI (786-0 renal): > 100 µM
- TGI (CAKI-1 renal): > 100 µM
- TGI (UACC-62 melanoma): > 100 µM
- TGI (OVCAR-3 ovarian): > 100 µM
- TGI (SR leukemia): > 100 µM
- TGI (MDA-MB-435): > 100 µM
- TGI (MALME-3M melanoma): > 100 µM
- TGI (T-47D breast): > 100 µM
- TGI (OVCAR-8 ovarian): > 100 µM
- TGI (SF-539 CNS): > 100 µM
- TGI (MDA-N): 30 µM
- TGI (SK-MEL-5 melanoma): > 100 µM
- TGI (SK-MEL-2 melanoma): > 100 µM
- TGI (NCI-H460 lung): > 100 µM
- TGI (SK-OV-3 ovarian): > 100 µM
- TGI (DU-145 prostate): > 100 µM
- TGI (HS 578T breast): > 100 µM
- TGI (MOLT-4 leukemia): > 100 µM
- TGI (NCI/ADR-RES ovarian): > 100 µM
- TGI (PC-3 prostate): > 100 µM
- TGI (UACC-257 melanoma): > 100 µM
- TGI (A498 renal): > 100 µM
- TGI (NCI-H226 lung): > 100 µM
- TGI (OVCAR-5 ovarian): > 100 µM
- TGI (MCF7 breast): > 100 µM
- TGI (COLO 205 colon): > 100 µM
- TGI (ACHN renal): > 100 µM
- TGI (HCC-2998 colon): > 100 µM
- TGI (RXF 393 renal): > 100 µM
- TGI (SN12C renal): > 100 µM
- TGI (HT29 colon): > 100 µM
- TGI (UO-31 renal): > 100 µM
- TGI (BT-549 breast): > 100 µM
- TGI (NCI-H23 lung): > 100 µM
- TGI (KM12 colon): > 100 µM
- TGI (SNB-19 CNS): > 100 µM
